# Reference: paper PMC5218480 (PLoS ONE, 2017)
# Tested on: MV-4-11 cells
# Assay: Gene expression microarray analysis (Affymetrix PrimeView) and GSEA
# Type: cell-based, human
# Design: RFU PODN (11730768_x_at) / Fold change /veh PODN (11730768_x_at) / RFU LINC00158 (11744669_a_at) / Fold change /veh LINC00158 (11744669_a_at) / RFU DUSP10 (11751237_a_at) / Fold change /veh DUSP10 (11751237_a_at) / RFU ID3 (11757404_x_at) / Fold change /veh ID3 (11757404_x_at) / RFU PLEKHG5 (11737974_s_at) / Fold change /veh PLEKHG5 (11737974_s_at) / RFU LRRC4B (11730491_at) / Fold change /veh LRRC4B (11730491_at) / RFU GIMAP4 (11747438_a_at) / Fold change /veh GIMAP4 (11747438_a_at) / RFU KRT8 (11758183_x_at) / Fold change /veh KRT8 (11758183_x_at) / RFU CNN1 (11734310_a_at) / Fold change /veh CNN1 (11734310_a_at) / RFU VPS37D (11726825_at) / Fold change /veh VPS37D (11726825_at) / RFU C10orf10 (11716522_x_at) / Fold change /veh C10orf10 (11716522_x_at) / RFU KIR2DL2 /// KIR2DL4 /// KIR2DL5A /// KIR2DL5B /// KIR2DS1 /// KIR2DS2 /// KIR2DS3 /// KIR2DS4 /// KIR3DL3 /// KIR3DL3 /// KIR3DS1 (11738374_at) / Fold change /veh KIR2DL2 /// KIR2DL4 /// KIR2DL5A /// KIR2DL5B /// KIR2DS1 /// KIR2DS2 /// KIR2DS3 /// KIR2DS4 /// KIR3DL3 /// KIR3DL3 /// KIR3DS1 (11738374_at) / RFU C1QL1 (11718748_at) / Fold change /veh C1QL1 (11718748_at) / RFU TMPRSS4 (11747572_a_at) / Fold change /veh TMPRSS4 (11747572_a_at) / RFU HAMP (11756126_x_at) / Fold change /veh HAMP (11756126_x_at) / RFU RNFT2 (11725882_a_at) / Fold change /veh RNFT2 (11725882_a_at) / RFU NR4A2 (11747474_a_at) / Fold change /veh NR4A2 (11747474_a_at) / RFU ABCC12 (11746883_a_at) / Fold change /veh ABCC12 (11746883_a_at) / RFU TMEM136 (11760407_x_at) / Fold change /veh TMEM136 (11760407_x_at) / RFU CLDN22 /// WWC2 (11732394_at) / Fold change /veh CLDN22 /// WWC2 (11732394_at) / RFU HLA-DPB1 (11760878_x_at) / Fold change /veh HLA-DPB1 (11760878_x_at) / RFU SPINT1 (11716480_a_at) / Fold change /veh SPINT1 (11716480_a_at) / RFU GAP43 (11754022_s_at) / Fold change /veh GAP43 (11754022_s_at) / RFU A4GNT (11735810_at) / Fold change /veh A4GNT (11735810_at) / RFU PRB3 (11715151_x_at) / Fold change /veh PRB3 (11715151_x_at) / RFU TUBB4B (11761932_at) / Fold change /veh TUBB4B (11761932_at) / RFU CAPN14 (11732068_a_at) / Fold change /veh CAPN14 (11732068_a_at) / RFU TMCC2 (11721928_a_at) / Fold change /veh TMCC2 (11721928_a_at) / RFU IRGQ (11745062_a_at) / Fold change /veh IRGQ (11745062_a_at) / RFU FAM174B (11720279_a_at) / Fold change /veh FAM174B (11720279_a_at) / RFU TMPRSS4 (11748680_a_at) / Fold change /veh TMPRSS4 (11748680_a_at) / RFU FAM212B (11763350_a_at) / Fold change /veh FAM212B (11763350_a_at) / RFU PLEKHG5 (11743358_a_at) / Fold change /veh PLEKHG5 (11743358_a_at) / RFU ZSCAN30 (11745921_a_at) / Fold change /veh ZSCAN30 (11745921_a_at) / RFU CMKLR1 (11741424_a_at) / Fold change /veh CMKLR1 (11741424_a_at) / RFU LOC101060620 /// MAPK8IP1 (11723275_at) / Fold change /veh LOC101060620 /// MAPK8IP1 (11723275_at) / RFU SPTSSB (11747773_x_at) / Fold change /veh SPTSSB (11747773_x_at) / RFU PRSS12 (11739890_at) / Fold change /veh PRSS12 (11739890_at) / RFU BIN1 (11741810_x_at) / Fold change /veh BIN1 (11741810_x_at) / RFU WNT11 (11732464_a_at) / Fold change /veh WNT11 (11732464_a_at) / RFU C10orf10 (11716521_a_at) / Fold change /veh C10orf10 (11716521_a_at) / RFU C5orf56 (11738089_at) / Fold change /veh C5orf56 (11738089_at) / RFU CYB561 (11721691_x_at) / Fold change /veh CYB561 (11721691_x_at) / RFU ANKRD19P (11752326_a_at) / Fold change /veh ANKRD19P (11752326_a_at) / RFU OR2T12 /// OR2T33 /// OR2T8 (11738714_s_at) / Fold change /veh OR2T12 /// OR2T33 /// OR2T8 (11738714_s_at) / RFU VCAN (11748164_a_at) / Fold change /veh VCAN (11748164_a_at) / RFU JSRP1 (11732532_at) / Fold change /veh JSRP1 (11732532_at) / RFU KRTAP10-11 (11738290_x_at) / Fold change /veh KRTAP10-11 (11738290_x_at) / RFU MYO3A (11730013_a_at) / Fold change /veh MYO3A (11730013_a_at) / RFU EBF3 (11725865_a_at) / Fold change /veh EBF3 (11725865_a_at) / RFU CAMK2N1 (11719241_x_at) / Fold change /veh CAMK2N1 (11719241_x_at) / RFU C5orf56 (11738088_a_at) / Fold change /veh C5orf56 (11738088_a_at) / RFU OLFML3 (11715873_a_at) / Fold change /veh OLFML3 (11715873_a_at) / RFU LOC100653217 /// NTM (11731650_a_at) / Fold change /veh LOC100653217 /// NTM (11731650_a_at) / RFU MAPK11 (11762145_a_at) / Fold change /veh MAPK11 (11762145_a_at) / RFU FIZ1 (11724087_x_at) / Fold change /veh FIZ1 (11724087_x_at) / RFU OASL (11726364_x_at) / Fold change /veh OASL (11726364_x_at) / RFU SOX15 (11748057_x_at) / Fold change /veh SOX15 (11748057_x_at) / RFU CD79A (11719716_a_at) / Fold change /veh CD79A (11719716_a_at) / RFU HIST1H1D (11736915_at) / Fold change /veh HIST1H1D (11736915_at) / RFU CASKIN2 (11723855_a_at) / Fold change /veh CASKIN2 (11723855_a_at) / RFU LOC730098 (11760151_x_at) / Fold change /veh LOC730098 (11760151_x_at) / RFU OR4N2 (11742367_at) / Fold change /veh OR4N2 (11742367_at) / RFU PRRT2 (11749266_a_at) / Fold change /veh PRRT2 (11749266_a_at) / RFU SNX32 (11753110_a_at) / Fold change /veh SNX32 (11753110_a_at) / RFU CDHR5 (11726645_a_at) / Fold change /veh CDHR5 (11726645_a_at) / RFU RCAN1 (11760418_a_at) / Fold change /veh RCAN1 (11760418_a_at) / RFU FAM167A (11723789_a_at) / Fold change /veh FAM167A (11723789_a_at) / RFU FAM26E (11764081_at) / Fold change /veh FAM26E (11764081_at) / RFU ISYNA1 (11749810_s_at) / Fold change /veh ISYNA1 (11749810_s_at) / RFU ACY1 (11761880_at) / Fold change /veh ACY1 (11761880_at) / RFU 11764098_at / Fold change /veh 11764098_at / RFU SAMD14 (11745864_x_at) / Fold change /veh SAMD14 (11745864_x_at) / RFU NPB (11741838_a_at) / Fold change /veh NPB (11741838_a_at) / RFU TMPRSS6 (11731388_a_at) / Fold change /veh TMPRSS6 (11731388_a_at) / RFU KRTAP10-2 (11738614_at) / Fold change /veh KRTAP10-2 (11738614_at) / RFU ARHGAP8 /// PRR5-ARHGAP8 (11727945_x_at) / Fold change /veh ARHGAP8 /// PRR5-ARHGAP8 (11727945_x_at) / RFU KRTAP5-7 /// NADSYN1 (11734609_at) / Fold change /veh KRTAP5-7 /// NADSYN1 (11734609_at) / RFU RASL12 (11751679_a_at) / Fold change /veh RASL12 (11751679_a_at) / RFU CDKN2B (11736163_a_at) / Fold change /veh CDKN2B (11736163_a_at) / RFU PRF1 (11729649_at) / Fold change /veh PRF1 (11729649_at) / RFU, ZNF638 /// ZNF638-IT1 / Fold change vs veh, ZNF638 /// ZNF638-IT1 / RFU, PANK3 / Fold change vs veh, PANK3 / RFU, SH3YL1 / Fold change vs veh, SH3YL1 / RFU, ZEB2 / Fold change vs veh, ZEB2 / RFU, NRIP1 / Fold change vs veh, NRIP1 / RFU, PTTG1IP / Fold change vs veh, PTTG1IP / RFU, CAPN2 / Fold change vs veh, CAPN2 / RFU, MED14 / Fold change vs veh, MED14 / RFU, SNORA58 / Fold change vs veh, SNORA58 / RFU, C1orf63 / Fold change vs veh, C1orf63 / RFU, LRRFIP1 / Fold change vs veh, LRRFIP1 / RFU, NDUFAF7 / Fold change vs veh, NDUFAF7 / RFU, SLC12A2 / Fold change vs veh, SLC12A2 / RFU, IBTK / Fold change vs veh, IBTK / RFU, ESF1 / Fold change vs veh, ESF1 / Fold change vs veh, TMEM50B / RFU, TAOK1 / Fold change vs veh, TAOK1 / RFU, ACBD3 / Fold change vs veh, ACBD3 / RFU, TMA16 / Fold change vs veh, TMA16 / RFU, RWDD3 / Fold change vs veh, RWDD3 / RFU, BCAT1 / Fold change vs veh, BCAT1 / RFU, EDEM3 / Fold change vs veh, EDEM3 / RFU, TMEM33 / Fold change vs veh, TMEM33 / RFU, WDR75 / Fold change vs veh, WDR75 / RFU, AHCTF1 / Fold change vs veh, AHCTF1 / RFU, TFRC / Fold change vs veh, TFRC / RFU, ZDHHC17 / Fold change vs veh, ZDHHC17 / RFU, NOM1 / Fold change vs veh, NOM1 / RFU, ARL8B / Fold change vs veh, ARL8B / RFU, ZBTB11 / Fold change vs veh, ZBTB11 / RFU, TAMM41 / Fold change vs veh, TAMM41 / RFU, KIAA1704 /// LOC100996395 / Fold change vs veh, KIAA1704 /// LOC100996395 / RFU, ING1 / Fold change vs veh, ING1 / RFU, TRMT61B / Fold change vs veh, TRMT61B / RFU, FUBP3 / Fold change vs veh, FUBP3 / RFU, TP53 / Fold change vs veh, TP53 / RFU, TNKS2 / Fold change vs veh, TNKS2 / RFU, ZFP14 / Fold change vs veh, ZFP14 / RFU, ACTR2 / Fold change vs veh, ACTR2 / RFU, PPP3R1 / Fold change vs veh, PPP3R1 / RFU, PIK3R1 / Fold change vs veh, PIK3R1 / RFU, HNRNPA1 / Fold change vs veh, HNRNPA1 / RFU, RNF170 / Fold change vs veh, RNF170 / RFU, ZNF28 / Fold change vs veh, ZNF28 / RFU, RNGTT / Fold change vs veh, RNGTT / RFU, OGT / Fold change vs veh, OGT / RFU, BRD1 / Fold change vs veh, BRD1 / RFU, MARS / Fold change vs veh, MARS / RFU, ZNF655 / Fold change vs veh, ZNF655 / RFU, FAHD1 / Fold change vs veh, FAHD1 / RFU, BDP1 / Fold change vs veh, BDP1 / RFU, LRRCC1 / Fold change vs veh, LRRCC1 / RFU, ARID1A / Fold change vs veh, ARID1A / RFU, ZNF146 / Fold change vs veh, ZNF146 / RFU, ZNF330 / Fold change vs veh, ZNF330 / RFU, GPN3 / Fold change vs veh, GPN3 / RFU, C9orf123 / Fold change vs veh, C9orf123 / RFU, N4BP2L2 / Fold change vs veh, N4BP2L2 / RFU, ARFIP1 / Fold change vs veh, ARFIP1 / RFU, FAM179B / Fold change vs veh, FAM179B / RFU, BCL10 / Fold change vs veh, BCL10 / RFU, UHRF1BP1L / Fold change vs veh, UHRF1BP1L / RFU, BET1 / Fold change vs veh, BET1 / RFU, CNOT2 / Fold change vs veh, CNOT2 / RFU, ZNF268 / Fold change vs veh, ZNF268 / Fold change vs veh, ZNF507 / RFU, DGCR2 / Fold change vs veh, DGCR2 / RFU, WDSUB1 / Fold change vs veh, WDSUB1 / Fold change vs veh, HSP90B1 /// MIR3652 / RFU, ADSS / Fold change vs veh, ADSS / RFU, GK / Fold change vs veh, GK / RFU, ZNF148 / Fold change vs veh, ZNF148 / RFU, TAF9 / Fold change vs veh, TAF9 / RFU, SLC1A5 / Fold change vs veh, SLC1A5 / RFU, SLMO2 / Fold change vs veh, SLMO2 / RFU, ABCC4 / Fold change vs veh, ABCC4 / RFU, LOC101060439 /// RAP1B / Fold change vs veh, LOC101060439 /// RAP1B / RFU, RFX7 / Fold change vs veh, RFX7 / RFU, GTPBP10 / Fold change vs veh, GTPBP10 / RFU, CNEP1R1 / Fold change vs veh, CNEP1R1 / RFU, BIVM-ERCC5 /// ERCC5 / Fold change vs veh, BIVM-ERCC5 /// ERCC5 / RFU, ILF3 / Fold change vs veh, ILF3 / RFU 11762660_at / Fold change /veh 11762660_at / RFU VCAN (11757783_s_at) / Fold change /veh VCAN (11757783_s_at) / RFU DDX43 (11728927_at) / Fold change /veh DDX43 (11728927_at) / RFU KRT8 (11758188_x_at) / Fold change /veh KRT8 (11758188_x_at) / RFU NKD1 (11759106_at) / Fold change /veh NKD1 (11759106_at) / RFU SRD5A1 (11742802_a_at) / Fold change /veh SRD5A1 (11742802_a_at) / RFU TPSAB1 /// TPSB2 (11721975_s_at) / Fold change /veh TPSAB1 /// TPSB2 (11721975_s_at) / RFU GSTM3 (11746129_a_at) / Fold change /veh GSTM3 (11746129_a_at) / RFU IL23R (11737362_x_at) / Fold change /veh IL23R (11737362_x_at) / RFU TMEM51 (11727254_a_at) / Fold change /veh TMEM51 (11727254_a_at) / RFU PIWIL2 (11732686_x_at) / Fold change /veh PIWIL2 (11732686_x_at) / RFU ORM1 (11744905_x_at) / Fold change /veh ORM1 (11744905_x_at) / RFU CCDC152 (11743942_at) / Fold change /veh CCDC152 (11743942_at) / RFU ECM1 (11717891_a_at) / Fold change /veh ECM1 (11717891_a_at) / RFU IL23R (11748794_a_at) / Fold change /veh IL23R (11748794_a_at) / RFU TNFAIP8L3 (11732012_x_at) / Fold change /veh TNFAIP8L3 (11732012_x_at) / RFU MBOAT4 (11741988_at) / Fold change /veh MBOAT4 (11741988_at) / RFU 11764193_at / Fold change /veh 11764193_at / RFU TMEM53 (11763286_at) / Fold change /veh TMEM53 (11763286_at) / RFU MAGEB2 (11727129_at) / Fold change /veh MAGEB2 (11727129_at) / RFU TMEM200A (11744735_a_at) / Fold change /veh TMEM200A (11744735_a_at) / RFU CCDC152 (11751479_a_at) / Fold change /veh CCDC152 (11751479_a_at) / RFU FAM211A (11726209_a_at) / Fold change /veh FAM211A (11726209_a_at) / RFU RGS16 (11746705_a_at) / Fold change /veh RGS16 (11746705_a_at) / RFU VCAN (11755009_s_at) / Fold change /veh VCAN (11755009_s_at) / RFU RHOB (11743442_s_at) / Fold change /veh RHOB (11743442_s_at) / RFU RGS16 (11720943_a_at) / Fold change /veh RGS16 (11720943_a_at) / RFU RGS16 (11720944_at) / Fold change /veh RGS16 (11720944_at) / RFU, VPS4B / Fold change vs veh, VPS4B / RFU, CREB1 / Fold change vs veh, CREB1 / RFU, DNAJC13 / Fold change vs veh, DNAJC13 / RFU, GNAQ / Fold change vs veh, GNAQ / RFU, CDK5R1 / Fold change vs veh, CDK5R1 / RFU, ZRANB3 / Fold change vs veh, ZRANB3 / RFU, CUL4A / Fold change vs veh, CUL4A / RFU, CCNY / Fold change vs veh, CCNY / RFU, UFL1 / Fold change vs veh, UFL1 / RFU, COG3 / Fold change vs veh, COG3 / RFU, DIAPH2 / Fold change vs veh, DIAPH2 / RFU, SKA2 / Fold change vs veh, SKA2 / RFU, AFF3 / Fold change vs veh, AFF3 / RFU, LMF1 / Fold change vs veh, LMF1 / RFU, IPO11 / Fold change vs veh, IPO11 / RFU, DFFB / Fold change vs veh, DFFB / RFU, FOXP1 / Fold change vs veh, FOXP1 / RFU, CARD8 / Fold change vs veh, CARD8 / RFU, STRN3 / Fold change vs veh, STRN3 / RFU, ADK / Fold change vs veh, ADK / RFU, RASSF2 / Fold change vs veh, RASSF2 / RFU, WIPF1 / Fold change vs veh, WIPF1 / RFU, LARP1B / Fold change vs veh, LARP1B / RFU, RASA1 / Fold change vs veh, RASA1 / RFU, RB1 / Fold change vs veh, RB1 / RFU, PPFIA1 / Fold change vs veh, PPFIA1 / RFU, MAT2A / Fold change vs veh, MAT2A / RFU, CCT5 / Fold change vs veh, CCT5 / RFU, WDR92 / Fold change vs veh, WDR92 / RFU, CUX1 / Fold change vs veh, CUX1 / RFU, TTC7A / Fold change vs veh, TTC7A / RFU, TMEM135 / Fold change vs veh, TMEM135 / RFU, DEPTOR / Fold change vs veh, DEPTOR / RFU, CPM / Fold change vs veh, CPM / RFU, DNAJB6 / Fold change vs veh, DNAJB6 / RFU, CACNA2D3 / Fold change vs veh, CACNA2D3 / RFU, DTX4 / Fold change vs veh, DTX4 / RFU, TFCP2 / Fold change vs veh, TFCP2 / RFU, GMCL1 /// GMCL1P1 / Fold change vs veh, GMCL1 /// GMCL1P1 / RFU, AEBP2 / Fold change vs veh, AEBP2 / RFU, SNHG1 /// SNORD22 /// SNORD25 /// SNORD26 /// SNORD27 /// SNORD28 /// SNORD29 /// SNORD31 / Fold change vs veh, SNHG1 /// SNORD22 /// SNORD25 /// SNORD26 /// SNORD27 /// SNORD28 /// SNORD29 /// SNORD31 / Fold change (Aza/veh), C12orf56 (ProbeSet 11735607_a_at) / Fold change (ACY-1035/veh), C12orf56 (ProbeSet 11735607_a_at) / Fold change (Aza/veh), FGFR1OP (ProbeSet 11751329_s_at) / Fold change (ACY-1035/veh), FGFR1OP (ProbeSet 11751329_s_at) / Fold change (Aza/veh), VPS36 (ProbeSet 11739960_a_at) / Fold change (ACY-1035/veh), VPS36 (ProbeSet 11739960_a_at) / RFU SYPL1 (11715823_x_at) / Fold change /veh SYPL1 (11715823_x_at) / RFU IGFBP7 (11715501_s_at) / Fold change /veh IGFBP7 (11715501_s_at) / RFU REEP3 (11722064_at) / Fold change /veh REEP3 (11722064_at) / RFU IGLL1 (11728026_x_at) / Fold change /veh IGLL1 (11728026_x_at): dose or concentration left out as unconfirmed
# Details: MV-4-11 cells, 48 hours
compound,measurement,value
Nc1ccc(-c2cccs2)cc1NC(=O)c1ccc2c(c1)cc(C1CC1)n2CCN1CCOCC1 [ACY-1035],RFU RCAN1 (11760418_a_at),20.19 RFU
